The record followed here is US20080310991A1, “Perishable-fruit-bearing cut-limb preservation and distribution method, coating and shipping container therefor” (State of Oregon, acting by and through the State Board of …, priority 2007, published 2008).

What all share (format): in vivo, Malus silvestris L. var. domestica Borkh.
Data set [1] relates to Rome Beauty apple-bearing cut-limbs. In words: Long-term storage experiment with 1-MCP treatment. Conditions: 1 ppm 1-MCP at 1° C. for twenty-four hours. As for the experimental part:
(§1) For Rome Beauty apples only, a long term storage experiment and an ascorbic acid dip solution/plant regulator spray experiment were also carried out. For the long-term storage experiment, sixty cut-limbs were harvested, packed in the perforated bags, and stored at 1° C. (nearly the freezing temperature of water). Half of the cut-limbs were treated with 0.0001% by volume (1 ppm) of 1-methylcyclopropene (1-MCP) at 1° C. for twenty-four hours before storage. […] It is possible, however, that MCP treatment would be beneficial in other applications, e.g. with different fruit types, varieties, cultivars, etc.

The subject of data set [2] is Rome Beauty apples cut-limbs. In words: Ascorbic acid treatment, visual quality during storage. Conditions: for Fruit visual quality / Leaves Symptom / Leaves visual quality: Rome Beauty apples, ASA 0.1%, 30 mL, packaged, 20° C. As for the experimental part:
(§2) The cut-limbs without 1-MCP treatment, after twenty-three and forty-two days of cold storage, were then transferred to room temperature (20° C.), and treated with the following five treatments: bagging, water dipping, bagging plus dipping, bagging […] the control. For the ascorbic acid dipping/abscisic acid spraying experiment, the following four treatments were carried out: ascorbic acid (0.1%) dipping only, coating with an abscission-inducing agent (ABA) such as 0.001% by volume (10 ppm) of abscisic acid added only, 0.1% by volume of ascorbic acid dipping plus coating with ABA added, and the control only. All of the treatments included dipping or coating (or both) and packaging in the perforated polyethylene bags.
(§3) Visual quality of leaves was scored with the widely used scale of 9=excellent, fresh; 7=good; 5=fair, slight discoloration; 3=mild discoloration and dryness; and 1=severe discoloration and dryness. Sensory quality of fruit was scored using a scale of 9=pleasant, fresh; 7=good; 5=bland, faint taste; 3=unpleasant taste; and 1=inedible. For both scales, a score of 5 is generally considered in post-harvest studies to be the threshold level of acceptability.

Data set [3] deals with Rome Beauty apples cut-limbs. Kind of data set: Ascorbic acid dipping/abscisic acid spraying experiment. The following applies: packaged. As for the experimental part:
as §1, §2

The subject of data set [4] is cut-limbs of Golden Delicious apple. In words: Citric acid immerging, visual quality of cut-limbs. Conditions: 0.5% CA, 30 mL, packaged, 20° C.
Source text: as §3

[5] abbreviates: 0.1% ascorbic acid dip solution.
Setting [6] is: 10 ppm abscisic acid in the edible coatings.

Turning to `CC1=CC1` [1-MCP, 1-methylcyclopropene], in data set [1] (Rome Beauty cut-limbs), the Fruit appearance entry is reported as “normal appearance” and the “Leaves showing brown-black burn symptoms” value is reported as “approximately 68%”. Besides, the “Phytotoxicity to the leaves” value in data set [1] (after four days of storage at 1° C.) is recorded as “severe phytotoxicity”.

With `O=C1O[C@H]([C@@H](O)CO)C(O)=C1O` [ASA, ascorbic acid], the Fruit visual quality in data set [2] (day 1), in data set [2] (day 2), in data set [2] (day 3), in data set [2] (day 4), in data set [2] (day 5) and in data set [2] (day 6) was 9.0 a each time. The Fruit visual quality in data set [2] (day 7) is 8.5 a. In addition, the “Leaves Symptom” value in data set [2] (day 1), in data set [2] (day 2), in data set [2] (day 3), in data set [2] (day 4) and in data set [2] (day 5) was “Normal” each time. In addition, the Leaves visual quality amounted to 8.5 a in data set [2] (day 1); 8.6 a in data set [2] (day 2); 8.3 a in data set [2] (day 3); 8.3 a in data set [2] (day 4); 8.4 a in data set [2] (day 5); 8.2 a in data set [2] (day 6). In data set [2] (day 7), this molecule yielded a Leaves visual quality of 8.0 a. Moreover, in data set [2] (after seven days stored with water dipping and packaging, vs no-acid), the “Color and luster (FIG. 3C)” value was “visibly better color and luster”. Besides, the “Shelf-life of the cut-limbs” value in data set [3] (setting [5]) is “increased”. The Water loss entry in data set [3] (setting [5]) is “decreased”.

In the case of `CC1=CC(=O)CC(C)(C)[C@@]1(O)/C=C/C(C)=C\C(=O)O` [abscisic acid], in data set [3] (setting [6]), the “Shelf-life of the cut-limbs” value is given as “increased” and the Water loss result was “decreased”.

Consider `O=C(O)CC(O)(CC(=O)O)C(=O)O` [CA, citric acid], for which the Fruit visual quality in data set [4] (day 1) is 9.0; in data set [4] (day 2), 9.0; in data set [4] (day 3), 9.0; in data set [4] (day 4) it was 8.5; in data set [4] (day 5), 8.5; in data set [4] (day 6), 8.5. The molecule further had a Fruit visual quality in data set [4] (day 7) of 8.5. Further, the Leaves visual quality in data set [4] (day 1) was found to be 8.6; in data set [4] (day 2) it was 8.4; in data set [4] (day 3), 8.3; in data set [4] (day 4) it was 7.9; in data set [4] (day 5), 8.4; in data set [4] (day 6) it was 8.2. In addition, in data set [4] (day 7), the Leaves visual quality stood at 8.0.
